Results published in US11371055B2, “Herbicide resistance genes” (CORTEVA AGRISCIENCE LLC, priority 2005, dated 2022).

Columns and labels:
[1] = system: AAD-12 (v1) T0 Maverick soybean plants; assay: 2,4-D leaf paint (leaf flip assay) on T0 soybean; format: in vivo, Glycine max; design: key to Leaf flip assay (18 HAT) Node N-1 / Leaf flip assay (18 HAT) Node N-2: 1 = Flip; 0 = No Flip; details: for Leaf flip assay (18 HAT) Node N-1 / Leaf flip assay (18 HAT) Node N-2: 2,4-D leaf paint
Text: Plants that are transferred to the greenhouse can be assayed for the presence of an active PAT gene further with a non-destructive manner by painting a section of leaf of the T0 primary transformant, or progeny thereof, with a glufosinate solution [0.05-2% v/v Liberty Herbicide, preferably 0.25-1.0% (v/v),=500-2000 ppm glufosinate, Bayer Crop Science]. Depending on the concentration used, assessment for glufosinate injury can be made 1-7 days after treatment. Plants can also be tested for 2,4-D tolerance in a non-destructive manner by selective application of a 2,4-D solution in water (0.25-1% v/v commercial 2,4-D dimethylamine salt formulation, preferably 0.5% v/v=2280 ppm 2,4-D ae) to the terminal leaflet of the newly expanding trifoliolate one or two, preferably two, nodes below the youngest emerging trifolioate. This assay allows assessment of 2,4-D sensitive plants 6 hours to several days after application by assessment of leaf flipping or rotation >90 degrees from the plane of the adjacent leaflets. Plants tolerant to 2,4-D will not respond to 2,4-D. To plants will be allowed to self fertilize in the greenhouse to give rise to T1 seed. T1 plants (and to the extent enough T0 plant clones are produced) will be sprayed with a range of herbicide doses to determine the level of herbicide protection afforded by AAD-12 (v1) and PAT genes in transgenic soybean. Rates of 2,4-D used on T0 plants will typically comprise one or two selective rates in the range of 100-1120 g ae/ha using a track sprayer as previously described. T1 plants will be treated with a wider herbicide dose ranging from 50-3200 g ae/ha 2,4-D. Likewise, T0 and T1 plants can be screened for glufosinate resistance by postemergence treatment with 200-800 and 50-3200 g ae/ha glufosinate, respectively. Glyphosate resistance (in plants transformed with constructs that contain EPSPS) or another glyphosate tolerance gene can be assessed in the T1 generation by postemergence applications of glyphosate with a dose range from 280-2240 g ae/ha glyphosate. Analysis of protein expression will occur as described in below. Individual T0 plants were assessed for the presence of the coding region of the gene of interest (AAD-12 (v1) or PAT v6) and copy number. Determination of the inheritance of AAD-12 (v1) will be made using T1 and T2 progeny segregation with respect to herbicide tolerance as described in previous examples.
A subset of the initial transformants were assessed in the T0 generation according to the methods above. […] PAT-only transformed plants responded the same at wildtype plants to leaf paint applications of 2,4-D

[2] = system: AAD-2 (v1) transformed T1 Arabidopsis; assay: 2,4-D dose response of AAD-2 (v1) transformed T1 Arabidopsis; format: in vivo, Arabidopsis thaliana; details: 200 g ae/ha 2,4-D
Protocol: Freshly harvested T1 seed transformed with a plant optimized AAD-12 (v1) or native AAD-2 (v1) gene were planted and selected for resistance to glufosinate as previously described Plants were then randomly assigned to various rates of 2,4-D (50-3200 g ae/ha). Herbicide applications were applied by track sprayer in a 187 L/ha spray volume. 2,4-D used was the commercial dimethylamine salt formulation (456 g ae/L, NuFarm, St Joseph, Mo.) mixed in 200 mM Tris buffer (pH 9.0) or 200 mM HEPES buffer (pH7.5).

T1 AAD-1 (v3) tobacco = assay: Elevated 2,4-D DMA rates in greenhouse tobacco, AAD-1; format: in vivo, Nicotiana tabacum
Text: T1 AAD-12 (v1) plants from an event segregating 3R:1S when selected with 560 g ai/ha Liberty using the same protocol as previously described. T1 AAD-1 (v3) seed was also planted for transformed tobacco controls (see PCT/US2005/014737). Untransformed KY160 was served as the sensitive control. Plants were sprayed using a track sprayer set to 187 L/ha at 140, 560, 2240, 8960, and 35840 g ae/ha 2,4-D DMA and rated 3 and 14 DAT.

[3] = system: wildtype Maverick soybeans; assay: 2,4-D leaf paint (leaf flip assay) on wildtype soybean; format: in vivo, Glycine max; design: key to Leaf flip assay (18 HAT) Node N-2: 1 = Flip; 0 = No Flip
Text: Plants that are transferred to the greenhouse can be assayed for the presence of an active PAT gene further with a non-destructive manner by painting a section of leaf of the T0 primary transformant, or progeny thereof, with a glufosinate solution [0.05-2% v/v Liberty Herbicide, preferably 0.25-1.0% (v/v),=500-2000 ppm glufosinate, Bayer Crop Science]. Depending on the concentration used, assessment for glufosinate injury can be made 1-7 days after treatment. Plants can also be tested for 2,4-D tolerance in a non-destructive manner by selective application of a 2,4-D solution in water (0.25-1% v/v commercial 2,4-D dimethylamine salt formulation, preferably 0.5% v/v=2280 ppm 2,4-D ae) to the terminal leaflet of the newly expanding trifoliolate one or two, preferably two, nodes below the youngest emerging trifolioate. […] Glyphosate resistance (in plants transformed with constructs that contain EPSPS) or another glyphosate tolerance gene can be assessed in the T1 generation by postemergence applications of glyphosate with a dose range from 280-2240 g ae/ha glyphosate. […] Individual T0 plants were assessed for the presence of the coding region of the gene of interest (AAD-12 (v1) or PAT v6) and copy number. […]
A subset of the initial transformants were assessed in the T0 generation according to the methods above. […]

[4] = system: Untransformed control corn (5XH751×Hi II); assay: Brace root injury of untransformed control corn after 2,4-D DMA; format: in vivo, Zea mays; details: 2240 g ae/ha 2,4-D DMA, V3-V4 stage, 14DAT
Text: T1 AAD-12 (v1) seed were planted into 3-inch pots containing Metro Mix media and at 2 leaf stage were sprayed with 70 g ae/ha imazethapyr to eliminate nulls. Surviving plants were transplanted to 1-gallon pots containing Metro Mix media and placed in the same growth conditions as before. At V3-V4 stage the plants were sprayed in the track sprayer set to 187 L/ha at either 560 or 2240 g ac/ha 2,4-D DMA. Plants were graded at 3 and 14 DAT and compared to 5XH751×Hi II control plants. A grading scale of 0-10 (no injury to extreme auxin injury) was developed to distinguish brace root injury. Brace Root grades were taken on 14DAT to show 2,4-D tolerance. 2,4-D causes brace root malformation, and is a consistent indicator of auxinic herbicide injury in corn. […] Event “pDAB4101(0)001.001” was apparently unstable; however, the other two events were robustly tolerant to 2,4-D and 2,4-D+imazethapyr or 2,-4D+glyphosate (see Table 16).

[5] = 2,4-D solution applied to terminal leaflet

SMILES | Leaf flip assay (18 HAT) Node N-1 ([1]; event D-1-14 (pDAB4464, AAD-12, CsVMV)) | Leaf flip assay (18 HAT) Node N-2 ([1]; event D-2-9 (pDAB4464, AAD-12, CsVMV)) | Leaf flip assay (18 HAT) Node N-2 ([1]; event D-2-14 (pDAB4464, AAD-12, CsVMV)) | Leaf flip assay (18 HAT) Node N-2 ([1]; event D-3-5 (pDAB4468, AAD-12, AtUbi10)) | Leaf flip assay (18 HAT) Node N-1 ([1]; event D-3-6 (pDAB4468, AAD-12, AtUbi10)) | Leaf flip assay (18 HAT) Node N-2 ([1]; event D-3-7 (pDAB4468, AAD-12, AtUbi10)) | Leaf flip assay (18 HAT) Node N-2 ([1]; event D-3-9 (pDAB4468, AAD-12, AtUbi10)) | Leaf flip assay (18 HAT) Node N-2 ([1]; event D-4-11B (pDAB4468, AAD-12, AtUbi10)) | Leaf flip assay (18 HAT) Node N-2 ([1]; event D-4-16 (pDAB4468, AAD-12, AtUbi10)) | Leaf flip assay (18 HAT) Node N-2 ([1]; event D-4-17 (pDAB4468, AAD-12, AtUbi10)) | Leaf flip assay (18 HAT) Node N-1 ([1]; event D-5-2 (pDAB4472, AAD-12, AtUbi3)) | Leaf flip assay (18 HAT) Node N-2 ([1]; event D-9-1 (pDAB4480, AAD-12, AtAct2)) | response to 2,4-D leaf painting [1, 5] | overall population injury [2] | Average % injury 14 DAT (T1 AAD-1 (v3) tobacco; 2240 g ae/ha 2,4-D) [%] | Average % injury 14 DAT (T1 AAD-1 (v3) tobacco; 8960 g ae/ha 2,4-D) [%] | Average % injury 14 DAT (T1 AAD-1 (v3) tobacco; 35840 g ae/ha 2,4-D) [%] | Leaf flip assay (18 HAT) Node N-2 ([3]; 2,4-D leaf paint, Maverick WT plants (WT-10, WT-2)) | response to 2,4-D leaf painting [3, 5] | Average Brace Root Injury (0-10 Scale) [4]
O=C(O)COc1ccc(Cl)cc1Cl [2,4-D, 2,4-dichlorophenoxyacetic acid] | 0 | 0 | 0 | 0 | 0 | 0 | 0 | 0 | 0 | 0 | 0 | 0 | did not respond | about 83% | 4 | 9 | 32 | 1 | did | –
CNC.O=C(O)COc1ccc(Cl)cc1Cl [2,4-D DMA] | – | – | – | – | – | – | – | – | – | – | – | – | – | – | – | – | – | – | – | 9
